Measured values taken from US5449612A, “Process for identifying candida by means of chromogenic substances” (Serbio, priority 1990, dated 1995).
Non-standard residues stand in square brackets, D forms with d. Residues, ends and D or L forms follow the SMILES beside them. *: point of attachment. Hyp = O=C(O)[C@@H]1C[C@@H](O)CN1; pNA = O=[N+]([O-])c1ccc(N*)cc1; Phg = N[C@H](C(=O)O)c1ccccc1; Pip = O=C(O)[C@@H]1CCCCN1; Cbz = O=C(OCc1ccccc1)*; Boc = CC(C)(C)OC(=O)*

What was measured:
Candida krusei = test: Tests on substrates against Candida krusei, colour reading on buffered gelose; on Reading at 24 h: key: -: none; +: weak; ++: moderate; +++: intense; ++++: very intense; format: cell-based; design: key to Specificity: interference with C. krusei: (a): interference with C. albicans (++++); (b): interference with C. krusei (++); (c): interference with C. tropicalis (++); conditions: for Reading at 24 h: Table IV, medium pH 6.0
Candida tropicalis = test: Tests on substrates against Candida tropicalis, colour reading on buffered gelose; format: cell-based; design: C. TROPICALIS reading at 48 h: key to the marks not given beside the values; conditions: for C. TROPICALIS reading at 24 h: Table III, medium pH 6.0; for Reading at 24 h: Table II, medium pH 6.0, YNB, glucose, agar, gentamycin
Candida guillermondii = test: Tests on substrates against Candida guillermondii; design: Reading at 24 h: key to the marks not given beside the values; conditions: for Reading at 24 h: Table V
Candida albicans = test: Tests on substrates against Candida albicans, colour reading on buffered gelose; format: cell-based; conditions: Table I; for Reading at 24 h: medium pH 6.0, YNB, glucose, agar, gentamycin, coloration or fluorescence
T. glabrata = test: Tests on substrates against T. glabrata, colour reading on buffered gelose; on T. GLABRATA reading at 24 h: key: -: none; +: weak; ++: moderate; +++: intense; ++++: very intense; format: cell-based, Torulopsis glabrata; design: T. GLABRATA reading at 48 h: key: -: none; +: weak; ++: moderate; +++: intense; ++++: very intense
C. tropicalis = test: Diagnosis from isolated colonies on gelose 2/5; format: cell-based, Candida tropicalis

Molecule: CC(C)(C)OC(=O)NCC(=O)N1CCC[C@H]1C(=O)N[C@@H](CCCNC(=N)N)C(=O)Nc1ccc([N+](=O)[O-])cc1 [Boc-Gly-L-Pro-L-Arg-pNA.AcOH] (Boc-Gly-Pro-Arg-pNA)
- Reading at 24 h (Candida krusei): -
- Specificity: interference with C. tropicalis (Candida tropicalis; Table I): (b)
- C. TROPICALIS reading at 24 h (Candida tropicalis): +
- Specificity: interference with C. tropicalis (Candida tropicalis; Table IV): (b)
- Specificity: interference with C. guillermondii (Candida guillermondii; Table I): (d)
- Reading at 24 h (Candida albicans): ++
- Specificity: interference with T. glabrata (T. glabrata): (e) and (f)
- T. GLABRATA reading at 24 h (T. glabrata; pH 6): +++

Molecule: CC(C)(C)OC(=O)N1C[C@H](O)C[C@H]1C(=O)N1CCC[C@H]1C(=O)N[C@@H](CCCNC(=N)N)C(=O)Nc1ccc([N+](=O)[O-])cc1 [Boc-L-4Hyp-L-Pro-L-Arg-pNA.AcOH] (Boc-[Hyp]-Pro-Arg-pNA)
- Specificity: interference with C. tropicalis (Candida tropicalis; Table I): (b)
- Reading at 24 h (Candida albicans): ++++

Molecule: CC(C)C[C@H](NC(=O)OC(C)(C)C)C(=O)N[C@@H](CO)C(=O)N[C@H](C(=O)N[C@@H](CCCNC(=N)N)C(=O)Nc1ccc([N+](=O)[O-])cc1)[C@@H](C)O [Boc-L-Leu-L-Ser-L-Thr-L-Arg-pNA.AcOH] (Boc-LSTR-pNA)
- Specificity: interference with C. tropicalis (Candida tropicalis; Table V): (c)
- Reading at 24 h (Candida guillermondii): ++++

Molecule: CC(=O)O.N=C(N)NCCC[C@H](NC(=O)OCc1ccccc1)C(=O)Nc1ccc([N+](=O)[O-])cc1 [Cbo-L-Arg-pNA.AcOH]
- Reading at 24 h (Candida albicans): -

Molecule: O=C(Nc1ccc([N+](=O)[O-])cc1)[C@@H]1CCCN1C(=O)OCc1ccccc1 [Cbo-L-Pro-pNA]
- Reading at 24 h (Candida albicans): -

Molecule: N=C(N)NCCC[C@H](NC(=O)[C@H]1CCCN1C(=O)[C@H]1CCCN1)C(=O)Nc1ccc([N+](=O)[O-])cc1 [H-D-Pro-D-Pro-L-Arg-pNA.2AcOH] (H-[dP]-[dP]-Arg-pNA)
- Reading at 24 h (Candida tropicalis): -

Molecule: N=C(N)NCCC[C@H](NC(=O)[C@@H]1CCCN1C(=O)CNC(=O)[C@H]1CCCN1)C(=O)Nc1ccc([N+](=O)[O-])cc1 [H-D-Pro-Gly-L-Pro-L-Arg-pNA.2AcOH] (H-[dP]GPR-pNA)
- C. TROPICALIS reading at 24 h (Candida tropicalis): +
- T. GLABRATA reading at 24 h (T. glabrata; pH 6): +

Molecule: N=C(N)NCCC[C@H](NC(=O)[C@@H](NC(=O)[C@H]1CCCN1)c1ccccc1)C(=O)Nc1ccc([N+](=O)[O-])cc1 [H-D-Pro-L-Phg-L-Arg-pNA.2AcOH] (H-[dP]-[Phg]-Arg-pNA)
- C. TROPICALIS reading at 24 h (Candida tropicalis): ++
- T. GLABRATA reading at 24 h (T. glabrata; pH 6): -

Molecule: N=C(N)NCCC[C@H](NC(=O)[C@@H]1CCCN1C(=O)[C@H]1CCCN1)C(=O)Nc1ccc([N+](=O)[O-])cc1 [H-D-Pro-L-Pro-L-Arg-pNA.2AcOH] (H-[dP]-Pro-Arg-pNA)
- Reading at 24 h (Candida tropicalis): ++++

Molecule: N=C(N)NCCC[C@H](NC(=O)[C@@H]1CCCN1C(=O)CNC(=O)CN)C(=O)Nc1ccc([N+](=O)[O-])cc1 [H-Gly-Gly-L-Pro-L-Arg-pNA.2AcOH] (H-GGPR-pNA)
- Reading at 24 h (Candida krusei): ++
- C. TROPICALIS reading at 24 h (Candida tropicalis): +
- Specificity: interference with C. tropicalis (Candida tropicalis; Table IV): (d)
- T. GLABRATA reading at 24 h (T. glabrata; pH 6): +

Molecule: N=C(N)NCCC[C@H](NC(=O)[C@@H]1CCCCN1C(=O)CN)C(=O)Nc1ccc([N+](=O)[O-])cc1 [H-Gly-L-Pip-L-Arg-pNA.2AcOH] (H-Gly-[Pip]-Arg-pNA)
- Specificity: interference with C. tropicalis (Candida tropicalis; Table I): (b)
- Reading at 24 h (Candida albicans): ++

Molecule: NCC(=O)N1CCC[C@H]1C(=O)Nc1ccc([N+](=O)[O-])cc1 [H-Gly-L-Pro-pNA.AcOH] (H-Gly-Pro-pNA)
- hydrolysis by the strains of C. tropicalis (C. tropicalis): hydrolyzed

Molecule: CC(=O)O.O=C(Nc1ccc([N+](=O)[O-])cc1)[C@H]1NCCC1O (stereo partly drawn) [H-L-3Hyp-pNA.AcOH]
- Specificity: nonspecific for the strains of Candida albicans (Candida albicans): (a)
- Reading at 24 h (Candida albicans): +++

Molecule: N=C(N)NCCC[C@H](NC(=O)[C@@H]1CCCN1C(=O)[C@@H]1C[C@@H](O)CN1)C(=O)Nc1ccc([N+](=O)[O-])cc1 [H-L-4Hyp-L-Pro-L-Arg-pNA.2AcOH] (H-[Hyp]-Pro-Arg-pNA)
- Specificity: interference with C. tropicalis (Candida tropicalis; Table I): (b)
- Reading at 24 h (Candida albicans): ++++

Molecule: CC(=O)O.O=C(Nc1ccc([N+](=O)[O-])cc1)[C@@H]1CC(O)CN1 (stereo partly drawn) [H-L-4Hyp-pNA.AcOH]
- Specificity: nonspecific for the strains of Candida albicans (Candida albicans): (a)
- Reading at 24 h (Candida albicans): +++

Molecule: C[C@H](N)C(=O)N[C@@H](C)C(=O)N1CCC[C@H]1C(=O)Nc1ccc([N+](=O)[O-])cc1 [H-L-Ala-L-Ala-L-Pro-pNA.AcOH] (H-Ala-Ala-Pro-pNA)
- Specificity: nonspecific for the strains of Candida albicans (Candida albicans): (a)
- Reading at 48 h (Candida albicans; same medium, reading at 48 h): +

Molecule: C[C@H](N)C(=O)N1CCC[C@H]1C(=O)Nc1ccc([N+](=O)[O-])cc1 [H-L-Ala-L-Pro-pNA.AcOH] (H-Ala-Pro-pNA)
- Specificity: nonspecific for the strains of Candida albicans (Candida albicans): (a)
- Reading at 24 h (Candida albicans): ++

Molecule: CC(=O)O.CC(=O)O.N=C(N)NCCC[C@H](N)C(=O)Nc1ccc([N+](=O)[O-])cc1 [H-L-Arg-pNA.2AcOH]
- Specificity: nonspecific for the strains of Candida albicans (Candida albicans): (a)
- Reading at 24 h (Candida albicans): +++

Molecule: CC(=O)O.O=C(Nc1ccc2ccccc2c1)[C@@H]1C[C@@H](O)CN1 [H-L-Hyp-NA.AcOH, reference compound]
- Specificity: nonspecific for the strains of Candida albicans (Candida albicans): (a)
- Reading at 24 h (Candida albicans): ++

Molecule: CC(C)C[C@H](N)C(=O)NCC(=O)N[C@@H](CCCNC(=N)N)C(=O)Nc1ccc([N+](=O)[O-])cc1 [H-L-Leu-Gly-L-Arg-pNA.2AcOH] (H-Leu-Gly-Arg-pNA)
- Reading at 24 h (Candida tropicalis): ++++

Molecule: CC(=O)O.COc1cc(NC(=O)[C@@H]2CCCN2)cc2ccccc12 [H-L-Pro-(4-MeO)NA.AcOH, reference compound]
- Reading at 24 h (Candida albicans): -

Molecule: CC(=O)O.O=C(Nc1ccc2cc(Br)ccc2c1)[C@@H]1CCCN1 [H-L-Pro-(6-Br)NA.AcOH, reference compound]
- Specificity: nonspecific for the strains of Candida albicans (Candida albicans): (a)
- Reading at 24 h (Candida albicans): +

Molecule: N=C(N)NCCC[C@H](NC(=O)[C@@H]1CCCN1)C(=O)Nc1ccc([N+](=O)[O-])cc1 [H-L-Pro-L-Arg-pNA.2AcOH] (H-Pro-Arg-pNA)
- Reading at 24 h (Candida tropicalis): ++

Molecule: N=C(N)NCCC[C@H](NC(=O)[C@@H]1CCCN1C(=O)[C@@H]1CCCN1)C(=O)Nc1ccc([N+](=O)[O-])cc1 [H-L-Pro-L-Pro-L-Arg-pNA.2AcOH] (H-Pro-Pro-Arg-pNA)
- Reading at 24 h (Candida krusei): -
- Specificity: interference with C. tropicalis (Candida tropicalis; Table I): (b)
- Reading at 24 h (Candida tropicalis): ++++
- Specificity: interference with C. tropicalis (Candida tropicalis; Table IV): (a)
- Reading at 24 h (Candida albicans): +++

Molecule: CC(=O)O.O=C(Nc1ccc2ccccc2c1)[C@@H]1CCCN1 [H-L-Pro-NA.AcOH, reference compound]
- Specificity: nonspecific for the strains of Candida albicans (Candida albicans): (a)
- Reading at 24 h (Candida albicans): ++

Molecule: CC(=O)O.COCCOCCOC(=O)NC(CCCN=C(N)N)C(=O)Nc1ccc([N+](=O)[O-])cc1 [MeO(CH2 CH2 O)2 CO-L-Arg-pNA.AcOH]
- Reading at 24 h (Candida albicans): -

Molecule: O=C(NCC(=O)N1CCC[C@H]1C(=O)Nc1ccc([N+](=O)[O-])cc1)OCc1ccccc1 [Z-Gly-L-Pro-pNA] (Cbz-Gly-Pro-pNA)
- Reading at 24 h (Candida albicans): -

Molecule: CC(=O)O.NCCCC[C@H](NC(=O)OCc1ccccc1)C(=O)Nc1ccc([N+](=O)[O-])cc1 [Z-L-Lys-pNA.AcOH]
- Reading at 24 h (Candida albicans): -

Molecule: Boc-L-Hyp-L-Pro-L-Arg-pNA.AcOH
- C. TROPICALIS reading at 24 h (Candida tropicalis): +
- T. GLABRATA reading at 24 h (T. glabrata; Table III, medium pH 6.0): -

Molecule: BzNH-D-Ala-Gly-L-Arg-pNA.AcOH
- C. TROPICALIS reading at 24 h (Candida tropicalis): ++
- T. GLABRATA reading at 24 h (T. glabrata; Table III, medium pH 6.0): -

Molecule: BzNH-L-Ala-Gly-L-Arg-pNA.AcOH
- C. TROPICALIS reading at 24 h (Candida tropicalis): +++
- T. GLABRATA reading at 24 h (T. glabrata; Table III, medium pH 6.0): -

Molecule: EM-L-Hyp-L-Arg-pNA.AcOH
- C. TROPICALIS reading at 48 h (Candida tropicalis; Table III footnotes): +++
- C. TROPICALIS reading at 24 h (Candida tropicalis): ++
- T. GLABRATA reading at 48 h (T. glabrata; Table III footnotes): +++
- T. GLABRATA reading at 24 h (T. glabrata; Table III, medium pH 6.0): -

Molecule: H-D-Pro-L-Hyp-L-Arg-pNA.2AcOH
- Reading at 24 h (Candida tropicalis): +++

Molecule: H-L-Hyp-L-Arg-pNA.2AcOH
- Reading at 24 h (Candida tropicalis): ++

Molecule: H-L-Hyp-L-Hyp-L-Arg-pNA.2AcOH
- Reading at 24 h (Candida tropicalis): +++

Molecule: H-L-Hyp-L-Lys-pNA.2AcOH
- Reading at 24 h (Candida tropicalis): ++

Molecule: H-L-Hyp-L-Pro-L-Arg-pNA.2AcOH
- Reading at 24 h (Candida tropicalis): +++

Molecule: H-L-ONC-L-Arg-pNA.AcOH
- Reading at 24 h (Candida krusei): ++
- Specificity: interference with C. krusei (Candida krusei; Table V): (b)
- Specificity: interference with C. guillermondii (Candida guillermondii; Table IV): (e)
- Reading at 24 h (Candida guillermondii): ++++

Molecule: H-L-ONC-L-Pro-L-Arg-pNA.AcOH
- Reading at 24 h (Candida tropicalis): +++

Molecule: MM-L-Phg-L-Arg-pNA.AcOH
- C. TROPICALIS reading at 24 h (Candida tropicalis): ++
- T. GLABRATA reading at 24 h (T. glabrata; Table III, medium pH 6.0): + +++

Molecule: Z-L-Ala-L-Pro-pNA
- Reading at 24 h (Candida albicans): -
